# Target: T1, full-length MALT1 protein His-MALT1(1-824) (Homo sapiens, UniProt Q9UDY8)
# T1 construct: full-length MALT1 protein His-MALT1(1-824); His (N); made in house; host or cells: baculovirus-infected insect cells
# T1 sequence (Q9UDY8 1-824): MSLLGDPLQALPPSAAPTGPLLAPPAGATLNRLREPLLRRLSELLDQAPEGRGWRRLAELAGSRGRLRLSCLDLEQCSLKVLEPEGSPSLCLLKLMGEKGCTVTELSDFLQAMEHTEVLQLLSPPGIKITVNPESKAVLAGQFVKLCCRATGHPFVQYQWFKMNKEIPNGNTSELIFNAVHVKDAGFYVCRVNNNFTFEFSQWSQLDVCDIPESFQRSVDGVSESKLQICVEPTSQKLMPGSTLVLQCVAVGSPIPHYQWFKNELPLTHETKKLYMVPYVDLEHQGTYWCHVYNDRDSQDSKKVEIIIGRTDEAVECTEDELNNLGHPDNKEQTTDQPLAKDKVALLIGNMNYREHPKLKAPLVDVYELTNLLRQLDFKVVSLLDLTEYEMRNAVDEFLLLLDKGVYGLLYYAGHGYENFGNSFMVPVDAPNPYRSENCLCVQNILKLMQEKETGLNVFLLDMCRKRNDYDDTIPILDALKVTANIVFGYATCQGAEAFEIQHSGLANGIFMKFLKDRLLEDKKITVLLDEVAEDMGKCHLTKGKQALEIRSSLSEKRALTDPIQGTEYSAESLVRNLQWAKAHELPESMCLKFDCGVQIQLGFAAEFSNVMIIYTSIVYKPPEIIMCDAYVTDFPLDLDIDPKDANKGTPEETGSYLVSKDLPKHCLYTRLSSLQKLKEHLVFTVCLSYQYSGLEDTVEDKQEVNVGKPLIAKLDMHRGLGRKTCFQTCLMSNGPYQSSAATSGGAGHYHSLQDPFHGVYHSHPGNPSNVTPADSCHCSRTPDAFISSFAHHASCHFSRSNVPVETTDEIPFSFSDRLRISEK
# Experiment: MALT1 protease assay (Ac-LRSR-AMC tetrapeptide substrate, fluorescence)
# Type: biochemical
# Conditions: 1 nM MALT1, 25 μM Ac-LRSR-AMC, 2 h pre-incubation, 8 hr incubation at RT
# Protocol: MALT1 protease activity was assessed in an in vitro assay using a tetrapeptide as substrate and full-length MALT1 protein His-MALT1(1-824) purified from baculovirus-infected insect cells.
# The final assay buffer includes 1 nM of MALT1 full-length protein, 25 μM Ac-LRSR-AMC substrate, 50 mM Tris pH 7.5, 600 mM Sodium Citrate, 1 mM DTT, 1 mM EDTA, and 0.05% BSA in 384-well plate format using black microtiter square well plates (Optiplate 384-F, Perkin Elmer).
# Test compounds were dissolved in 100% DMSO stock of 10 mM, with final DMSO concentration of 0.1%. Test compounds were pre-incubated with MALT1 protein for 2 h at room temperature. Substrate was added after the pre-incubation and fluorescence signal was measured using Envision at excitation 355 nm and emission 460 nm after 8 hr incubation at RT.
# The fluorescence units were transformed to percentage of remaining activity by using the high control (HC, median of fluorescence signal from wells containing MALT1 protein, substrate, and DMSO) and low control (LC, median of fluorescence signal from wells with substrate only) with the formula below: […]
# IC50 and Hill coefficients were obtained using Graph Pad Prism (Graph Pad software, Inc, USA) with non-linear regression analysis.
row,IC50 [nM],Compound
1,< 10,"C[C@]1(c2cnn(C(F)F)c2)C[C@H](C(=O)Nc2cnc(-n3nccn3)c(C(F)(F)F)c2)c2cnc3cc(F)nn3c21 (single isomer, unassigned) [Example 80]"
2,10 to 100,"C[C@@]1(c2cncs2)C[C@H](C(=O)Nc2cnc(-n3nccn3)c(Cl)c2)c2cnc3cc(F)nn3c21 (single isomer, unassigned) [Example 38]"
3,≥ 1000,"Cn1cc([C@]2(C)C[C@@H](C(=O)Nc3ccnc(C(F)(F)F)c3)c3cnc4cc(Cl)nn4c32)cn1 (single isomer, unassigned) [Example 45]"
4,10 to 100,"C[C@]1(c2cnn(C(F)F)c2)C[C@H](C(=O)Nc2cnc(-c3ncncc3F)c(Cl)c2)c2cnc3cc(F)nn3c21 (single isomer, unassigned) [Example 156]"
5,10 to 100,"Cn1nccc1[C@@]1(C)C[C@H](C(=O)Nc2cnc(-n3nccn3)c(Cl)c2)c2cnc3cc(F)nn3c21 (single isomer, unassigned) [Example 64]"
6,10 to 100,"CC(F)(F)n1ccc([C@@]2(C)C[C@H](C(=O)Nc3cnc(-c4ncccn4)c(Cl)c3)c3cnc4cc(F)nn4c32)n1 (single isomer, unassigned) [Example 168]"
7,100 to 1000,"C[C@@]1(c2ccn(C(F)F)n2)C[C@H](C(=O)Nc2cnc(-c3ncccn3)c(C(F)(F)F)c2)c2cnc3cc(F)nn3c21 (single isomer, unassigned) [Example 138]"
8,≥ 1000,"C[C@@]1(c2ccn(C(F)F)n2)C[C@@H](C(=O)Nc2ccc(-c3ncccn3)c(C(F)(F)F)c2)c2cnc3cc(F)nn3c21 (single isomer, unassigned) [Example 186]"
9,10 to 100,"C[C@@]1(c2cnn(C(F)F)c2)C[C@H](C(=O)Nc2cnc(-n3nccn3)c(Cl)c2)c2cnc3cc(F)nn3c21 (single isomer, unassigned) [Example 26]"
10,≥ 1000,"CC(F)(F)n1cc([C@]2(C)C[C@@H](C(=O)Nc3cnc(-n4nccn4)c(Cl)c3)c3cnc4cc(F)nn4c32)cn1 (single isomer, unassigned) [Example 121]"
11,≥ 1000,"C[C@@]1(c2ccn(C(F)F)n2)C[C@@H](C(=O)Nc2cnc(-n3nccn3)c(C(F)(F)F)c2)c2cnc3cc(F)nn3c21 (single isomer, unassigned) [Example 125]"
12,≥ 1000,"Cn1cc([C@]2(C)C[C@@H](C(=O)Nc3cnc(-n4nccn4)c(Cl)c3)c3cnc4cc(Cl)nn4c32)cn1 (single isomer, unassigned) [Example 9]"
13,≥ 1000,"Cn1ccc([C@]2(C)C[C@@H](C(=O)Nc3cnc(-n4nccn4)c(C(F)(F)F)c3)c3cnc4cc(F)nn4c32)n1 (single isomer, unassigned) [Example 145]"
14,≥ 1000,"C[C@]1(c2cnn(C(F)F)c2)C[C@@H](C(=O)Nc2cnc(-n3nccn3)c(Cl)c2)c2cnc3cc(F)nn3c21 (single isomer, unassigned) [Example 27]"
15,10 to 100,"C[C@@]1(c2cnn(CC(F)(F)F)c2)C[C@H](C(=O)Nc2cnc(-n3nccn3)c(Cl)c2)c2cnc3cc(F)nn3c21 (single isomer, unassigned) [Example 86]"
16,100 to 1000,"CC1(c2cnn(C(F)F)c2)CC(C(=O)Nc2cnc(-c3ncc(F)cn3)c(C(F)(F)F)c2)c2cnc3cc(F)nn3c21 (single isomer, unassigned) [Example 133]"
17,100 to 1000,"Cn1cc([C@]2(C)C[C@H](C(=O)Nc3cnc(-n4nccn4)c(C(F)(F)F)c3)c3cnc4cc(F)nn4c32)cn1 (single isomer, unassigned) [Example 7]"
18,≥ 1000,"Cn1cc([C@]2(C)C[C@@H](C(=O)Nc3cnc(OC(F)(F)F)c(C#N)c3)c3cnc4cc(F)nn4c32)cn1 (single isomer, unassigned) [Example 53]"
19,10 to 100,"C[C@]1(c2cnn(C(F)(F)F)c2)C[C@H](C(=O)Nc2cnc(-n3nccn3)c(Cl)c2)c2cnc3cc(F)nn3c21 (single isomer, unassigned) [Example 102]"
20,100 to 1000,"C[C@@]1(c2cnn(C(F)(F)F)c2)C[C@H](C(=O)Nc2cnc(-n3nccn3)c(Cl)c2)c2cnc3cc(F)nn3c21 (single isomer, unassigned) [Example 104]"

# The remaining lines, values behind:
row,Compound,IC50 [nM]
1,"C[C@@]1(c2ccn(C(F)F)n2)C[C@H](C(=O)Nc2cnc(OC(F)F)c(C#N)c2)c2cnc3cc(F)nn3c21 (single isomer, unassigned) [Example 112]",100 to 1000
2,"Cc1cc(NC(=O)C2CC(C)(c3ccn(C(F)F)n3)c3c2cnc2cc(F)nn32)cnc1-c1ncccn1 (single isomer, unassigned) [Example 183]",10 to 100
3,"Cn1nccc1[C@]1(C)C[C@H](C(=O)Nc2cnc(-n3nccn3)c(Cl)c2)c2cnc3cc(F)nn3c21 (single isomer, unassigned) [Example 66]",100 to 1000
4,"C[C@@]1(c2cnn(C(F)F)c2)C[C@H](C(=O)Nc2cnc(OC(F)F)c(C#N)c2)c2cnc3cc(F)nn3c21 (single isomer, unassigned) [Example 94]",10 to 100
5,"CC1(c2ccn(C(F)F)n2)CC(C(=O)Nc2cnc(-c3ncc(F)cn3)c(Cl)c2)c2cnc3cc(F)nn3c21 (single isomer, unassigned) [Example 115]",100 to 1000
6,"CC1(n2ccc([C@]3(C)C[C@@H](C(=O)Nc4cnc(-c5ncccn5)c(C(F)(F)F)c4)c4cnc5cc(F)nn5c43)n2)CC1 (single isomer, unassigned) [Example 159]",≥ 1000
7,"C[C@@]1(c2ccn(C3CC3)n2)C[C@@H](C(=O)Nc2cnc(-n3nccn3)c(Cl)c2)c2cnc3cc(F)nn3c21 (single isomer, unassigned) [Example 153]",≥ 1000
8,"C[C@@]1(c2cnn(C(F)F)c2)C[C@@H](C(=O)Nc2cnc(-c3ncccn3)c(C(F)(F)F)c2)c2cnc3cc(F)nn3c21 (single isomer, unassigned) [Example 149]",≥ 1000
9,"Cn1ccc([C@]2(C)C[C@@H](C(=O)Nc3cnc(OC(F)F)c(C#N)c3)c3cnc4cc(F)nn4c32)n1 (single isomer, unassigned) [Example 69]",≥ 1000
10,"C[C@]1(c2cnn(C(F)F)c2)C[C@H](C(=O)Nc2cnc(-c3ncc(F)cn3)c(C(F)(F)F)c2)c2cnc3cc(F)nn3c21 [Example 132, (6S,8R)-8-(1-(difluoromethyl)-1H-pyrazol-4-yl)-2-fluoro-N-(6-(5-fluoropyrimidin-2-yl)-5-(trifluoromethyl)pyridin-3-yl)-8-methyl-7,8-dihydro-6H-cyclopenta[e]pyrazolo[1,5-a]pyrimidine-6-carboxamide]",10 to 100
11,"C[C@@]1(c2cnn(CC3CC3)c2)C[C@@H](C(=O)Nc2cnc(-n3nccn3)c(Cl)c2)c2cnc3cc(F)nn3c21 (single isomer, unassigned) [Example 99]",≥ 1000
12,"C[C@@]1(c2cnn(C(F)(F)F)c2)C[C@@H](C(=O)Nc2cnc(-n3nccn3)c(Cl)c2)c2cnc3cc(F)nn3c21 (single isomer, unassigned) [Example 103]",≥ 1000
13,"Cn1ccc([C@@]2(C)C[C@@H](C(=O)Nc3cnc(-n4nccn4)c(C(F)(F)F)c3)c3cnc4cc(F)nn4c32)n1 (single isomer, unassigned) [Example 147]",100 to 1000
14,"C[C@@]1(c2cncs2)C[C@@H](C(=O)Nc2cnc(-n3nccn3)c(Cl)c2)c2cnc3cc(F)nn3c21 (single isomer, unassigned) [Example 37]",≥ 1000
15,"Cn1cc([C@]2(C)C[C@@H](C(=O)Nc3cnc(-n4nccn4)c(Cl)c3)c3cnc4cc(F)nn4c32)cn1 (single isomer, unassigned) [Example 2]",≥ 1000
16,"C[C@]1(c2cnn(C3CC3)c2)C[C@@H](C(=O)Nc2cnc(OC(F)F)c(C#N)c2)c2cnc3cc(F)nn3c21 (single isomer, unassigned) [Example 75]",100 to 1000
17,"C[C@]1(c2ccn(C(F)F)n2)C[C@@H](C(=O)Nc2cnc(-c3ncccn3)c(C(F)(F)F)c2)c2cnc3cc(Cl)nn3c21 (single isomer, unassigned) [Example 174]",100 to 1000
18,"Cc1cc(NC(=O)C2CC(C)(c3ccn(C(F)F)n3)c3c2cnc2cc(F)nn32)cnc1-c1ncccn1 (single isomer, unassigned) [Example 184]",≥ 1000

# From patent US20260049085A1, “CYCLIC COMPOUNDS AND METHODS OF USING SAME” (SCHRÖDINGER, INC., priority 2022, published 2026)
